# Data: patent US20250186410A1, “DUAL INHIBITORS OF TRYPTOPHAN DIOXYGENASES (IDO1 AND TDO) AND THEIR USE IN THERAPY” (ANTIDO THERAPEUTICS INTERNATIONAL SÀRL, priority 2022, published 2025)
# What was measured:
# Pan02 tumors = assay: Tumor volume, mouse subcutaneous Pan02 syngeneic model of pancreatic cancer; type: in vivo; settings: for tumor volume, Mean: oxaliplatin 6 mg/kg i.p. BIW, AT-0174 120 mg/kg p.o. QD Day 7-32
# Method: (§1) Female C57BL/6 mice were used in the study, with ad libitum access to rodent food and water throughout the study period.
# (§2) Murine pancreatic Pan02 cancer cells were cultured in a 37° C. incubator containing 5% CO2 with 10% FBS in DMEM medium. The cells were sub-cultured within 10 passages before inoculated into the mice. 1*10^6 PANC02 cells in 100 μL serum-free medium mixed with Matrigel (v/v 1:1) were subcutaneously inoculated at the right flank of each mouse under anesthetized with 2-5% isoflurane before inoculation.
# Tumor volume: The tumor volume (V) was calculated as follows: V=(length×width^2)/2. Tumor volume was measured and recorded three times per week after grouping.
# The individual relative tumor volume (RTV) was calculated as follows: RTV=Vt/V0, where Vt is the volume on each day, and V0 is the volume at the beginning of the treatment.
# [1] = Body weight and clinical observations, Pan02 syngeneic model; type: in vivo, mouse; settings: for Body weight, Mean: oxaliplatin 6 mg/kg i.p. BIW, AT-0174 120 mg/kg p.o. QD Day 7-32
# Method: as §1, §2
# Body weight: Mice body weights were measured and recorded three times per week after grouping. Animals were also weighed in the event of accidental death or near-death euthanasia.
# [2] = test system: immune cells in Pan02 tumors; assay: FACS analysis of Pan02 tumors; type: in vivo, mouse; settings: Day 34, oxaliplatin 6 mg/kg i.p. BIW, AT-0174 120 mg/kg p.o. QD
# Method: On Day 34, all tumor-bearing mice were sacrificed, and tumors were collected for FACS analysis. FACS panels were:
# Panel A: L/D, CD45, CD3, CD4, CD8, CD11b, CD25, IFN-γ, Foxp3.
# Panel B: L/D, CD45, CD3, CD11b, NKG2D, F4/80.
# Flow cytometry was conducted using a Beckman Cytoflex LX and antibodies from Thermofisher and Biolegend, using standard methods.
# LLC-CR cells = settings: cited from earlier work
# [3] = test system: LLC (mouse Lewis lung cancer cells); assay: Growth inhibition of parental LLC cells; type: cell-based; settings: 24 h
# Method: Cisplatin resistant mouse cell lines (LLC-CR) were derived from LLC (mouse Lewis lung cancer cells (epidermoid carcinoma), ATCC) through treatment with increasing doses of cisplatin intermittently. LLC-CR clones were maintained in half GI50 dosage concentration. […] The cultures were observed daily and allowed to grow until they reached an initial cell density. […] After the cells recovered from cisplatin toxicity, they were treated again with increasing dosage of cisplatin for 24 h. These cells are seeded at 500-1000 cells per dish and cultured for 5-7 days. Clones are selected and expanded as well as tested for cisplatin sensitivity. Similar processes of exposure are carried out for a third and fourth time to generate higher resistant clones. At the end, the resistance clones (LLC-CR) were maintained in media completed with 1 μg/ml (half GI50 dosage) of cisplatin.
compound,measurement,setting,value
O=C1[O][Pt]2([NH][C@@H]3CCCC[C@H]3[NH]2)[O]C1=O [Oxaliplatin],"tumor volume, Mean","Pan02 tumors; Pan02, day 0",63.84 mm^3
same,"tumor volume, Mean","Pan02 tumors; Pan02, day 4",80.36 mm^3
same,"tumor volume, Mean","Pan02 tumors; Pan02, day 7",108.77 mm^3
same,"tumor volume, Mean","Pan02 tumors; Pan02, day 11",152.24 mm^3
same,"tumor volume, Mean","Pan02 tumors; Pan02, day 14",250.08 mm^3
same,"tumor volume, Mean","Pan02 tumors; Pan02, day 18",410.18 mm^3
same,"tumor volume, Mean","Pan02 tumors; Pan02, day 21",601.42 mm^3
same,"tumor volume, Mean","Pan02 tumors; Pan02, day 25",735.54 mm^3
same,"tumor volume, Mean","Pan02 tumors; Pan02, day 28",912.95 mm^3
same,"tumor volume, Mean","Pan02 tumors; Pan02, day 32",1316.29 mm^3
same,"tumor volume, Mean","Pan02 tumors; Pan02, day 34",1507.92 mm^3
same,anti-tumor response,"Pan02 tumors; Pan02 model, compared with the vehicle group",little anti-tumor response
same,"Body weight, Mean","[1]; Pan02, day 4",21.21 g
same,"Body weight, Mean","[1]; Pan02, day 11",21.10 g
same,"Body weight, Mean","[1]; Pan02, day 25",23.00 g
same,"Body weight, Mean","[1]; Pan02, day 28",22.00 g
same,"Body weight, Mean","[1]; Pan02, day 32",22.65 g
same,"Body weight, Mean","[1]; Pan02, day 34",23.31 g
same,body weight loss / tolerability,[1]; Pan02 model,Slight body weight loss
same,CD4+ Tregs,[2],25.40%
same,CD8+ CD3+ Tcells,[2],31.62%
N.N.[Cl][Pt][Cl] [cisplatin],GI50 concentration in resistant clones,LLC-CR cells; LLC-CR cells,~2 µg/mL
same,fold resistance of LLC-CR,LLC-CR cells; LLC-CR versus parental LLC,3-5 fold
same,50% growth inhibition (GI50) concentration,[3],0.4 µg/mL
